The numbers were not newly measured in patent US20130323323A1, “Therapeutic Method and Associated Compound for Augmenting the Liver's Metabolization of Oxygen-Modified Toxins” (priority 2012, published 2013), which cites them from elsewhere.

For series [1] the following is noted: limited supply of oxygen to the liver.
Assay in series [2]: not given
The source holds these as a separate data set.

The conditions of series [3]: pure oxygen via inhalation; rats, cats, and dogs.

SMILES strings stand for the structures. Read-outs that look alike come from different tables or passages of the source.

Turning to `CCO` [alcohol, Ethanol], the “rate at which alcohol is metabolized (plateau)” value in series [1] was “around 0.02 g alcohol/100 ml blood per hour”.

In the case of `Cn1c(=O)c2c(ncn2C)n(C)c1=O` [Caffeine], the “time to peak plasma concentration” value (after ingestion) is 30 to 45 min. Further, the bioavailable (in vivo) is given as approximately 100%.

`O=O` [oxygen]: the “solubility of oxygen in water” value was 9 ppm in series [2] (5 degrees Celsius and 1 standard atmosphere); 6 ppm in series [2] (25 degrees Celsius and 1 standard atmosphere). Also, in series [3], the “increase in the elimination rate of ethanol” value is reported as “No measurable increase”.
